{"source": "patent EP4772634A1", "about": "“DOUBLE-STRANDED RNA TARGETING COAGULATION FACTOR XI” (Chia Tai Tianqing Pharmaceutical Group Co., Ltd., priority 2023, dated 2025)", "key": {"[1]": {"system": "human coagulation factor XI protein", "test": "In vivo activity in AAV-FXI model mice, serum FXI protein by ELISA", "details": "AAV-FXI mice (C57BL/6 male), single subcutaneous 3 mg/kg", "experimental": "4-6 week old C57BL/6 male mice were injected via the tail vein with 1 × 10^11 vg of AAV8-FXI (WZ Biosciences). On day 28 after modeling, mice with an hFXI protein content of greater than 100 ng/mL were selected. The mice were randomly divided into groups based on body weight and were injected with 3 mg/kg of the dsRNA ligand conjugate of the present application (amount calculated based on siRNA only) on day 0. Orbital blood was collected on day 7, day 14, day 35, and day 56. Serum was separated, and the content of the coagulation factor XI protein in the serum at each time point was measured using a Human Coagulation Factor XI ELISA kit (Thermo, Cat. No. EH118RB).\n(§1) The coagulation factor XI protein inhibition rate was calculated according to the following equation: [formula]\nThe content of the coagulation factor XI protein in animal serum was measured before and on day 7, day 14, day 35, and day 56 after a single subcutaneous administration of the dsRNA ligand conjugate of the present application at a dose of 3 mg/kg to AAV-FXI mice (see Table 15). […] Table 15. In vivo experimental design"}, "[2]": {"system": "human coagulation factor XI protein", "test": "In vivo activity in human coagulation factor XI model mice (Experimental Example 3), plasma FXI protein by ELISA", "details": "humanized mice", "experimental": "The humanized mice used in this experimental example were purchased from Cyagen Biosciences Co., Ltd. The humanized mice were randomly divided into groups, with 4 mice per group. The compound and PBS control (pH = 7.2) were administered to each group of mice, respectively. The day of the first administration was designated as day 0 of the experiment. The corresponding compound solutions were administered via a single subcutaneous injection based on animal body weight, at administration doses of 1 mg/kg and 5 mg/kg. PBS control mice were each administered PBS, with an administration volume of 10 mL/kg body weight. Orbital blood was collected before administration and on day 7, day 14, day 28, day 42, and day 63 after administration. Plasma was separated, and the content of the coagulation factor XI protein in the plasma was measured at each time point.\nAbout 165 µL of blood was collected from the orbital veins for plasma collection. A 3.8% trisodium citrate anticoagulant was added to the whole blood in a volume ratio of 1:9 (anticoagulant:[…], v/v), and the mixture was centrifuged at 3000 rpm at 20 °C for 15 min to collect plasma. The content of the coagulation factor XI protein in the plasma obtained from the above groups of mice (test groups administered the compound and PBS control group) was measured using a Human Coagulation Factor XI ELISA kit (Sigma, Cat. No. RAB1385-1KT).\nas §1\nTable 11 lists the measurement of FXI protein content in animal plasma before and on day 7, day 14, day 28, day 42, and day 63 after a single subcutaneous administration of siRNA ligand conjugates (TD01M01L01, TD02M01L01) at doses of 1 mg/kg and 5 mg/kg to humanized homozygous mice. […] Table 11. In vivo experimental design"}, "[3]": {"system": "human coagulation factor XI protein", "test": "In vivo activity in human coagulation factor XI model mice (Experimental Example 4), FXI protein by ELISA", "details": "female humanized homozygous mice, single subcutaneous 3 mg/kg", "experimental": "The humanized mice used in this experimental example were purchased from Cyagen Biosciences Co., Ltd. The female humanized homozygous mice were randomly divided into groups, with 4 mice per group. The compound and PBS control (pH = 7.2) were administered to each group of mice, respectively. The day of the first administration was designated as day 0 of the experiment. The corresponding compound solutions were administered via a single subcutaneous injection based on animal body weight, at an administration dose of 3 mg/kg. PBS control mice were each administered PBS, with an administration volume of 10 mL/kg body weight. Orbital blood was collected before administration and on day 3, day 7, day 14, day 21, day 28, day 42, day 56, and day 70 after administration. Serum was separated, and the content of the coagulation factor XI protein in the serum at each time point was measured using a Human Coagulation Factor XI ELISA kit (Thermo, Batch No. 2350072722, Cat. No. EH118RB).\nas §1\nTable 13 lists the measurement of coagulation factor XI protein content in animal plasma before and on day 3, day 7, day 14, day 21, day 28, day 42, day 56, and day 70 after a single subcutaneous administration of siRNA ligand conjugates at a dose of 3 mg/kg to humanized homozygous mice. […] Table 13. In vivo experimental design"}, "[4]": {"details": "single subcutaneous 1 mg/kg, D7"}, "[5]": {"details": "single subcutaneous 1 mg/kg, D14"}, "[6]": {"details": "single subcutaneous 1 mg/kg, D28"}, "[7]": {"details": "single subcutaneous 1 mg/kg, D42"}, "[8]": {"details": "single subcutaneous 1 mg/kg, D63"}, "[9]": {"details": "single subcutaneous 5 mg/kg, D7"}, "[10]": {"details": "single subcutaneous 5 mg/kg, D14"}, "[11]": {"details": "single subcutaneous 5 mg/kg, D28"}, "[12]": {"details": "single subcutaneous 5 mg/kg, D42"}, "[13]": {"details": "single subcutaneous 5 mg/kg, D63"}}, "data": [{"substance": "TD12M02L01: dsRNA ligand conjugate: TD12M02 with L01 (GalNAc) ligand at 3' end of sense strand SEQ ID NO 75; antisense SEQ ID NO 76 (sense TGATTTTCTTATATCAAGT; antisense ACTTGATATAAGAAAATCATC; GalNAc L01 ligand at sense 3' end, 2'-OMe/2'-F, pattern not given here)", "values": [{"measurement": "Relative inhibition rate (%) of FXI protein", "setting": "[1]; D7", "result": 88.4, "unit": "%"}, {"measurement": "Relative inhibition rate (%) of FXI protein", "setting": "[1]; D14", "result": 88.0, "unit": "%"}]}, {"substance": "TD02M01L01: siRNA ligand conjugate: TD02M01 with L01 (GalNAc) ligand at 3' end of sense strand SEQ ID NO 33; antisense SEQ ID NO 34 (sense GGATGATTTTCTTATATCA; antisense TGATATAAGAAAATCATCCTG; GalNAc L01 ligand at sense 3' end, 2'-OMe/2'-F, pattern not given here)", "values": [{"measurement": "Relative inhibition rate (%) of FXI protein", "setting": "[2]; [4]", "result": 61.5, "unit": "%"}, {"measurement": "Relative inhibition rate (%) of FXI protein", "setting": "[2]; [5]", "result": 63.9, "unit": "%"}, {"measurement": "Relative inhibition rate (%) of FXI protein", "setting": "[2]; [6]", "result": 49.2, "unit": "%"}, {"measurement": "Relative inhibition rate (%) of FXI protein", "setting": "[2]; [7]", "result": 52.9, "unit": "%"}, {"measurement": "Relative inhibition rate (%) of FXI protein", "setting": "[2]; [8]", "result": 41.1, "unit": "%"}, {"measurement": "Relative inhibition rate (%) of FXI protein", "setting": "[2]; [9]", "result": 91.8, "unit": "%"}, {"measurement": "Relative inhibition rate (%) of FXI protein", "setting": "[2]; [10]", "result": 94.0, "unit": "%"}, {"measurement": "Relative inhibition rate (%) of FXI protein", "setting": "[2]; [11]", "result": 87.8, "unit": "%"}, {"measurement": "Relative inhibition rate (%) of FXI protein", "setting": "[2]; [12]", "result": 89.4, "unit": "%"}, {"measurement": "Relative inhibition rate (%) of FXI protein", "setting": "[2]; [13]", "result": 69.0, "unit": "%"}]}, {"substance": "TD01M02L01: siRNA ligand conjugate: TD01M02 with L01 (GalNAc) ligand at 3' end of sense strand SEQ ID NO 31; antisense SEQ ID NO 32 (sense GATCTCCAACTAAAATACT; antisense AGTATTTTAGTTGGAGATCCG; GalNAc L01 ligand at sense 3' end, 2'-OMe/2'-F, pattern not given here)", "values": [{"measurement": "Relative inhibition rate (%) of FXI protein", "setting": "[3]; D3", "result": 69.3, "unit": "%"}, {"measurement": "Relative inhibition rate (%) of FXI protein", "setting": "[3]; D7", "result": 88.5, "unit": "%"}, {"measurement": "Relative inhibition rate (%) of FXI protein", "setting": "[3]; D14", "result": 91.8, "unit": "%"}, {"measurement": "Relative inhibition rate (%) of FXI protein", "setting": "[3]; D21", "result": 91.7, "unit": "%"}, {"measurement": "Relative inhibition rate (%) of FXI protein", "setting": "[3]; D28", "result": 91.3, "unit": "%"}, {"measurement": "Relative inhibition rate (%) of FXI protein", "setting": "[3]; D42", "result": 86.1, "unit": "%"}, {"measurement": "Relative inhibition rate (%) of FXI protein", "setting": "[3]; D56", "result": 76.1, "unit": "%"}, {"measurement": "Relative inhibition rate (%) of FXI protein", "setting": "[3]; D70", "result": 68.9, "unit": "%"}, {"measurement": "Relative inhibition rate (%) of FXI protein", "setting": "[2]; [4]", "result": 65.1, "unit": "%"}, {"measurement": "Relative inhibition rate (%) of FXI protein", "setting": "[2]; [5]", "result": 67.4, "unit": "%"}, {"measurement": "Relative inhibition rate (%) of FXI protein", "setting": "[2]; [6]", "result": 62.5, "unit": "%"}, {"measurement": "Relative inhibition rate (%) of FXI protein", "setting": "[2]; [7]", "result": 69.3, "unit": "%"}, {"measurement": "Relative inhibition rate (%) of FXI protein", "setting": "[2]; [8]", "result": 44.6, "unit": "%"}, {"measurement": "Relative inhibition rate (%) of FXI protein", "setting": "[2]; [9]", "result": 90.9, "unit": "%"}, {"measurement": "Relative inhibition rate (%) of FXI protein", "setting": "[2]; [10]", "result": 93.1, "unit": "%"}, {"measurement": "Relative inhibition rate (%) of FXI protein", "setting": "[2]; [11]", "result": 92.4, "unit": "%"}, {"measurement": "Relative inhibition rate (%) of FXI protein", "setting": "[2]; [12]", "result": 93.1, "unit": "%"}, {"measurement": "Relative inhibition rate (%) of FXI protein", "setting": "[2]; [13]", "result": 76.6, "unit": "%"}]}, {"substance": "TD01M01L01: siRNA ligand conjugate: TD01M01 with L01 (GalNAc) ligand at 3' end of sense strand SEQ ID NO 29; antisense SEQ ID NO 30 (sense GATCTCCAACTAAAATACT; antisense AGTATTTTAGTTGGAGATCCG; GalNAc L01 ligand at sense 3' end, 2'-OMe/2'-F, pattern not given here)", "values": [{"measurement": "Relative inhibition rate (%) of FXI protein", "setting": "[2]; [4]", "result": 58.1, "unit": "%"}, {"measurement": "Relative inhibition rate (%) of FXI protein", "setting": "[2]; [5]", "result": 67.5, "unit": "%"}, {"measurement": "Relative inhibition rate (%) of FXI protein", "setting": "[2]; [6]", "result": 58.6, "unit": "%"}, {"measurement": "Relative inhibition rate (%) of FXI protein", "setting": "[2]; [7]", "result": 68.8, "unit": "%"}, {"measurement": "Relative inhibition rate (%) of FXI protein", "setting": "[2]; [8]", "result": 41.3, "unit": "%"}, {"measurement": "Relative inhibition rate (%) of FXI protein", "setting": "[2]; [9]", "result": 90.5, "unit": "%"}, {"measurement": "Relative inhibition rate (%) of FXI protein", "setting": "[2]; [10]", "result": 92.8, "unit": "%"}, {"measurement": "Relative inhibition rate (%) of FXI protein", "setting": "[2]; [11]", "result": 89.5, "unit": "%"}, {"measurement": "Relative inhibition rate (%) of FXI protein", "setting": "[2]; [12]", "result": 91.8, "unit": "%"}, {"measurement": "Relative inhibition rate (%) of FXI protein", "setting": "[2]; [13]", "result": 74.4, "unit": "%"}]}, {"substance": "TD05M02L01: dsRNA ligand conjugate: TD05M02 with L01 (GalNAc) ligand at 3' end of sense strand SEQ ID NO 47; antisense SEQ ID NO 48 (sense CTTTTCAGGATGATTTTCT; antisense AGAAAATCATCCTGAAAAGAC; GalNAc L01 ligand at sense 3' end, 2'-OMe/2'-F, pattern not given here)", "values": [{"measurement": "Relative inhibition rate (%) of FXI protein", "setting": "[1]; D7", "result": 96.3, "unit": "%"}, {"measurement": "Relative inhibition rate (%) of FXI protein", "setting": "[1]; D14", "result": 96.6, "unit": "%"}, {"measurement": "Relative inhibition rate (%) of FXI protein", "setting": "[1]; D35", "result": 81.7, "unit": "%"}, {"measurement": "Relative inhibition rate (%) of FXI protein", "setting": "[1]; D56", "result": 51.0, "unit": "%"}]}]}
